Measurements published in the NIST ThermoML archive (doi:10.1016/j.jct.2016.10.023).

Assay: xn = mol fraction of the nth substance listed
Conditions: Constant-volume piezometry

CCCCC [pentane] + CCCO
Conditions | mass density [kg/m3]
492.15 K, 4052 kPa, Gas, x1 = 0.5 | 144.33
492.15 K, 4112 kPa, Gas, x1 = 0.5 | 154.72
493.15 K, 888 kPa, Gas, x1 = 0.5 | 15.54
493.15 K, 1226 kPa, Gas, x1 = 0.8 | 22.56
493.15 K, 1421 kPa, Gas, x1 = 0.2 | 24.96
493.15 K, 1591 kPa, Gas, x1 = 0.5 | 30.02
493.15 K, 1810 kPa, Gas, x1 = 0.8 | 36.74
493.15 K, 2098 kPa, Gas, x1 = 0.5 | 40.54
493.15 K, 2429 kPa, Gas, x1 = 0.5 | 51.17
493.15 K, 2601 kPa, Gas, x1 = 0.8 | 58.5
493.15 K, 2706 kPa, Gas, x1 = 0.2 | 53.08
493.15 K, 2984 kPa, Gas, x1 = 0.5 | 67.61
493.15 K, 3042 kPa, Gas, x1 = 0.8 | 73.9
493.15 K, 3148 kPa, Gas, x1 = 0.5 | 72.7
493.15 K, 3184 kPa, Gas, x1 = 0.9 | 83.5
493.15 K, 3462 kPa, Gas, x1 = 0.5 | 89.03
493.15 K, 3598 kPa, Gas, x1 = 0.5 | 95.98
493.15 K, 3742 kPa, Gas, x1 = 0.8 | 106.55
493.15 K, 3862 kPa, Fluid (supercritical or subcritical phases), x1 = 0.9 | 123.52
493.15 K, 3941 kPa, Gas, x1 = 0.5 | 122.07
493.15 K, 3987 kPa, Fluid (supercritical or subcritical phases), x1 = 0.9 | 134.31
493.15 K, 4087 kPa, Gas, x1 = 0.5 | 144.32
493.15 K, 4129 kPa, Liquid, x1 = 0.2 | 471.17
493.15 K, 4161 kPa, Gas, x1 = 0.5 | 154.71
493.15 K, 4227 kPa, Gas, x1 = 0.5 | 165.38
493.15 K, 4237 kPa, Fluid (supercritical or subcritical phases), x1 = 0.8 | 140.51
493.15 K, 4263 kPa, Gas, x1 = 0.5 | 183.12
493.15 K, 4268 kPa, Fluid (supercritical or subcritical phases), x1 = 0.9 | 164.19
493.15 K, 4335 kPa, Fluid (supercritical or subcritical phases), x1 = 0.5 | 282.8
493.15 K, 4335 kPa, Fluid (supercritical or subcritical phases), x1 = 0.8 | 156.27
493.15 K, 4414 kPa, Fluid (supercritical or subcritical phases), x1 = 0.5 | 299.12
493.15 K, 4423 kPa, Fluid (supercritical or subcritical phases), x1 = 0.8 | 170.03
493.15 K, 4439 kPa, Fluid (supercritical or subcritical phases), x1 = 0.9 | 189.73
493.15 K, 4462 kPa, Fluid (supercritical or subcritical phases), x1 = 0.8 | 176.28
493.15 K, 4502 kPa, Fluid (supercritical or subcritical phases), x1 = 0.8 | 181.09
493.15 K, 4518 kPa, Fluid (supercritical or subcritical phases), x1 = 0.9 | 202.67
493.15 K, 4547 kPa, Fluid (supercritical or subcritical phases), x1 = 0.8 | 193.44
493.15 K, 4549 kPa, Fluid (supercritical or subcritical phases), x1 = 0.5 | 320.48
493.15 K, 4592 kPa, Fluid (supercritical or subcritical phases), x1 = 0.5 | 325.77
493.15 K, 4629 kPa, Fluid (supercritical or subcritical phases), x1 = 0.9 | 221.01
493.15 K, 4679 kPa, Fluid (supercritical or subcritical phases), x1 = 0.8 | 214.17
493.15 K, 4710 kPa, Fluid (supercritical or subcritical phases), x1 = 0.8 | 219.94
493.15 K, 4720 kPa, Fluid (supercritical or subcritical phases), x1 = 0.9 | 233.41
493.15 K, 4743 kPa, Fluid (supercritical or subcritical phases), x1 = 0.9 | 236.88
493.15 K, 4769 kPa, Fluid (supercritical or subcritical phases), x1 = 0.9 | 241.29
493.15 K, 4776 kPa, Fluid (supercritical or subcritical phases), x1 = 0.5 | 345.09
493.15 K, 4792 kPa, Fluid (supercritical or subcritical phases), x1 = 0.9 | 244.6
493.15 K, 4810 kPa, Fluid (supercritical or subcritical phases), x1 = 0.8 | 235.05
493.15 K, 4875 kPa, Fluid (supercritical or subcritical phases), x1 = 0.8 | 245.71
493.15 K, 4935 kPa, Fluid (supercritical or subcritical phases), x1 = 0.8 | 258.95
493.15 K, 5020 kPa, Fluid (supercritical or subcritical phases), x1 = 0.9 | 282.43
493.15 K, 5042 kPa, Fluid (supercritical or subcritical phases), x1 = 0.8 | 272.94
493.15 K, 5149 kPa, Fluid (supercritical or subcritical phases), x1 = 0.8 | 288.82
493.15 K, 5207 kPa, Fluid (supercritical or subcritical phases), x1 = 0.5 | 373.47
493.15 K, 5245 kPa, Fluid (supercritical or subcritical phases), x1 = 0.9 | 302.14
493.15 K, 5306 kPa, Fluid (supercritical or subcritical phases), x1 = 0.8 | 299.65
493.15 K, 5423 kPa, Fluid (supercritical or subcritical phases), x1 = 0.9 | 312.8
493.15 K, 5594 kPa, Fluid (supercritical or subcritical phases), x1 = 0.8 | 315.85
493.15 K, 5904 kPa, Fluid (supercritical or subcritical phases), x1 = 0.9 | 334.55
493.15 K, 5953 kPa, Fluid (supercritical or subcritical phases), x1 = 0.5 | 398.77
493.15 K, 5998 kPa, Fluid (supercritical or subcritical phases), x1 = 0.8 | 334.37
493.15 K, 6296 kPa, Fluid (supercritical or subcritical phases), x1 = 0.8 | 345.91
493.15 K, 6629 kPa, Fluid (supercritical or subcritical phases), x1 = 0.9 | 354.68
493.15 K, 6775 kPa, Fluid (supercritical or subcritical phases), x1 = 0.5 | 417.91
493.15 K, 7003 kPa, Fluid (supercritical or subcritical phases), x1 = 0.8 | 362.51
493.15 K, 7649 kPa, Liquid, x1 = 0.2 | 510.49
493.15 K, 8441 kPa, Fluid (supercritical or subcritical phases), x1 = 0.5 | 441.69
493.15 K, 9382 kPa, Fluid (supercritical or subcritical phases), x1 = 0.5 | 452.03
493.15 K, 10256 kPa, Fluid (supercritical or subcritical phases), x1 = 0.9 | 407.97
493.15 K, 10826 kPa, Fluid (supercritical or subcritical phases), x1 = 0.8 | 418.91
493.15 K, 11783 kPa, Fluid (supercritical or subcritical phases), x1 = 0.5 | 468.97
493.15 K, 14598 kPa, Liquid, x1 = 0.2 | 548.05

Liquid, x1 = 0.5
Conditions | mass density [kg/m3]
492.65 K | 282.81
492.95 K | 270.96
